The results in this text go back to ChEMBL document CHEMBL4396934, “Novel α,β-unsaturated hydroxamic acid derivatives overcome cisplatin resistance” (Bioorg Med Chem, 2019).

The source made the active and inactive calls. No cut-off for these calls is given here.

The Ki is a dissociation constant, usually derived from enzyme kinetics or from competition with a known ligand. What is called IC50 is the midpoint of a concentration-inhibition curve.

Assay [1] is filed under the species Homo sapiens. Nature of the assay: Potentiation of cisplatin-induced apoptosis in human Cal27CisR cells assessed as caspase-3/7 activity at 1 uM preincubated for 48 hrs followed by cisplatin addition and further incubation for 24 hrs treated with 20 uM pan capsase inhibitor QVD for 30 mins prior to compound addition by CellEvent caspase 3/7 green detection reagent/Hoechst 33342 staining based arrayscan analysis. It counts as functional, cell-based.

The test system of assay [2] is CAL-27. The assay is described as follows: Potentiation of cisplatin-induced apoptosis in human CAL27 cells assessed as caspase-3/7 activity at 0.5 uM preincubated for 48 hrs followed by cisplatin addition and further incubation for 24 hrs treated with 20 uM pan capsase inhibitor QVD for 30 mins prior to compound addition by CellEvent caspase 3/7 green detection reagent/Hoechst 33342 staining based arrayscan analysis. The format is functional, cell-based.

The species entered for assay [3] is Homo sapiens. The assay is described as follows: Potentiation of cisplatin-induced apoptosis in human Cal27CisR cells assessed as increase in caspase-3/7 activation at 1 uM preincubated for 48 hrs followed by cisplatin addition and further incubation for 24 hrs by CellEvent caspase 3/7 green detection reagent/Hoechst 33342 staining based arrayscan analysis. The format is functional, cell-based.

Assay [4] has as its system CAL-27. The assay is described as follows: Potentiation of cisplatin-induced apoptosis in human CAL27 cells assessed as increase in caspase-3/7 activation at 0.5 uM preincubated for 48 hrs followed by cisplatin addition and further incubation for 24 hrs by CellEvent caspase 3/7 green detection reagent/Hoechst 33342 staining based arrayscan analysis. It counts as functional, cell-based.

The species named for assay [5] is Homo sapiens. Nature of the assay: Induction of apoptosis in human Cal27CisR cells assessed as increase in caspase-3/7 activation at 1 uM after 48 hrs by CellEvent caspase 3/7 green detection reagent/Hoechst 33342 staining based arrayscan analysis. It counts as functional, cell-based.
In assay [6] the test system is CAL-27. The assay is described as follows: Induction of apoptosis in human CAL27 cells assessed as caspase-3/7 activity at 0.5 uM after 48 hrs by CellEvent caspase 3/7 green detection reagent/Hoechst 33342 staining based arrayscan analysis. The format is functional, cell-based.
The nature of assay [7]: Potentiation of cisplatin-induced apoptosis in human Cal27CisR cells assessed as accumulation at sub-G1 phase at 1 uM preincubated for 48 hrs followed by cisplatin addition and further incubation for 24 hrs by propidium iodide staining based flow cytometry (reference value: 8.3 +/- 1.06%). It counts as functional.
For assay [8], the system named is CAL-27. The assay is described as follows: Potentiation of cisplatin-induced apoptosis in human CAL27 cells assessed as increase in accumulation at sub-G1 phase at 0.5 uM preincubated for 48 hrs followed by cisplatin addition and further incubation for 24 hrs by propidium iodide staining based flow cytometry relative to cisplatin alone. It counts as functional.

Assay [9] deals with CAL-27. Nature of the assay: Induction of apoptosis in human CAL27 cells assessed as accumulation at sub-G1 phase at 0.5 uM after 48 hrs by propidium iodide staining based flow cytometry. It counts as functional, cell-based. On the technique in general: Flow cytometry measures light scatter and fluorescence of single cells or particles in a stream.
A short description of assay [10]: Potentiation of cisplatin-induced apoptosis in human Cal27CisR cells assessed as increase in accumulation at sub-G1 phase at 1 uM preincubated for 48 hrs followed by cisplatin addition and further incubation for 24 hrs by propidium iodide staining based flow cytometry relative to cisplatin alone. The format is functional.
In assay [11] the test system is CAL-27. The assay is described as follows: Potentiation of cisplatin-induced cytotoxicity in human CAL27 cells assessed as fold reduction in cisplatin IC50 at 0.5 uM preincubated for 48 hrs followed by cisplatin addition and further incubation for 72 hrs by MTT assay relative to cisplatin alone. The format is functional. Background: Tetrazolium assays rely on reduction of a dye to a coloured formazan, in cell work by metabolically active cells.

The target of assay [12] is T1, Protein deacetylase HDAC6 (Homo sapiens, UniProt Q9UBN7).
T1 sequence (Q9UBN7 whole entry): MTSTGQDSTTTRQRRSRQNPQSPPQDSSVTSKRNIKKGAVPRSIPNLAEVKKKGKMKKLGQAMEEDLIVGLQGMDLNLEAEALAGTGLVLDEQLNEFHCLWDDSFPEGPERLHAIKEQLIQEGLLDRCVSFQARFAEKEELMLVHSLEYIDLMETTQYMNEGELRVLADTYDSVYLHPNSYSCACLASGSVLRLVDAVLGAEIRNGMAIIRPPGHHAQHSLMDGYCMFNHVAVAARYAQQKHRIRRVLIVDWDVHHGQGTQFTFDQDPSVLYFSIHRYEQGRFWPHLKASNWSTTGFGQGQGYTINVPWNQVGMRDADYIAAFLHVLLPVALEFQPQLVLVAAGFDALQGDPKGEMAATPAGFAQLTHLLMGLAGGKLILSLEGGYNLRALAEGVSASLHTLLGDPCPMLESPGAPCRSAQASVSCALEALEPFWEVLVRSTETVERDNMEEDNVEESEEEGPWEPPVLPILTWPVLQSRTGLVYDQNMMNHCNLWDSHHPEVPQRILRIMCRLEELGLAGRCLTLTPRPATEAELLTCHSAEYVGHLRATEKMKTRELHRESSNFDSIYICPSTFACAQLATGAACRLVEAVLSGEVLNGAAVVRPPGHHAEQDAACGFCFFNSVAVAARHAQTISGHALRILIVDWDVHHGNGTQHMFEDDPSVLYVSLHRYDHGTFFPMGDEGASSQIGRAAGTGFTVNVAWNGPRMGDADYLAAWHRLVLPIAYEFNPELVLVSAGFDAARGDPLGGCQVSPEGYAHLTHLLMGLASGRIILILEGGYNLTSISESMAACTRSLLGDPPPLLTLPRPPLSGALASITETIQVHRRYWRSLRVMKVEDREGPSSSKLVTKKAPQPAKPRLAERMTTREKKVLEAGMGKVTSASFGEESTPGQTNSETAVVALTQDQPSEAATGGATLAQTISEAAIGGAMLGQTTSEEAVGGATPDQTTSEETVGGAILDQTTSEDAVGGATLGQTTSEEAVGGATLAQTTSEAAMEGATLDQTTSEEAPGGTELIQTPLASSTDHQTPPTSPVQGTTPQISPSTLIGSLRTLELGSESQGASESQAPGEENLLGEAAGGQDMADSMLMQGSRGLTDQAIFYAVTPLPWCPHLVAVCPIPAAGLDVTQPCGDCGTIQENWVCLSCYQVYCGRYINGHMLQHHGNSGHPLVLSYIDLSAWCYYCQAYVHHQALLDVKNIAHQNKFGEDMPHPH
The assay is described as follows: Inhibition of N-terminal GST-tagged recombinant human HDAC6 (1 to 1215 residues) expressed in Baculovirus infected insect cells using Boc-Lys(Ac)-AMC as substrate preincubated for 5 mins followed by substrate addition and further incubation for 90 mins measured after 15 mins by microplate reader based fluorescence assay.

For assay [13], the target named is Histone deacetylase 4 (Homo sapiens, UniProt P56524). Nature of the assay: Inhibition of C-terminal His-tagged/N-terminal GST-tagged recombinant human HDAC4 (627 to 1084 residues) expressed in Baculovirus infected insect cells using Boc-Lys(TFa)-AMC as substrate preincubated for 5 mins followed by substrate addition and further incubation for 90 mins measured after 15 mins by microplate reader based fluorescence assay.

For assay [14], the target named is Histone deacetylase 2 (Homo sapiens, UniProt Q92769). The assay is described as follows: biochemical. It counts as cell-based.
Assay [15] deals with Histone deacetylase. The assay is described as follows: Inhibition of HDAC in human A2780 cells using Boc-Lys(epsilon-Ac)-AMC as substrate preincubated for 18 hrs followed by substrate addition and further incubation for 3 hrs by microplate reader based fluorescence assay. The format is cell-based.
For assay [16], the system named is CAL-27. The assay is described as follows: Antiproliferative activity against human CAL27 cells after 72 hrs by microplate reader based MTT assay. The format is functional, cell-based. The settings on record: CAL-27, 72 h.
Assay [17] has as its target Histone deacetylase. The assay is described as follows: Inhibition of HDAC in human CAL27 cells using Boc-Lys(epsilon-Ac)-AMC as substrate preincubated for 18 hrs followed by substrate addition and further incubation for 3 hrs by microplate reader based fluorescence assay. It counts as cell-based.

Chain of Histone deacetylase 4 (P56524 whole entry, the tested form may be a part): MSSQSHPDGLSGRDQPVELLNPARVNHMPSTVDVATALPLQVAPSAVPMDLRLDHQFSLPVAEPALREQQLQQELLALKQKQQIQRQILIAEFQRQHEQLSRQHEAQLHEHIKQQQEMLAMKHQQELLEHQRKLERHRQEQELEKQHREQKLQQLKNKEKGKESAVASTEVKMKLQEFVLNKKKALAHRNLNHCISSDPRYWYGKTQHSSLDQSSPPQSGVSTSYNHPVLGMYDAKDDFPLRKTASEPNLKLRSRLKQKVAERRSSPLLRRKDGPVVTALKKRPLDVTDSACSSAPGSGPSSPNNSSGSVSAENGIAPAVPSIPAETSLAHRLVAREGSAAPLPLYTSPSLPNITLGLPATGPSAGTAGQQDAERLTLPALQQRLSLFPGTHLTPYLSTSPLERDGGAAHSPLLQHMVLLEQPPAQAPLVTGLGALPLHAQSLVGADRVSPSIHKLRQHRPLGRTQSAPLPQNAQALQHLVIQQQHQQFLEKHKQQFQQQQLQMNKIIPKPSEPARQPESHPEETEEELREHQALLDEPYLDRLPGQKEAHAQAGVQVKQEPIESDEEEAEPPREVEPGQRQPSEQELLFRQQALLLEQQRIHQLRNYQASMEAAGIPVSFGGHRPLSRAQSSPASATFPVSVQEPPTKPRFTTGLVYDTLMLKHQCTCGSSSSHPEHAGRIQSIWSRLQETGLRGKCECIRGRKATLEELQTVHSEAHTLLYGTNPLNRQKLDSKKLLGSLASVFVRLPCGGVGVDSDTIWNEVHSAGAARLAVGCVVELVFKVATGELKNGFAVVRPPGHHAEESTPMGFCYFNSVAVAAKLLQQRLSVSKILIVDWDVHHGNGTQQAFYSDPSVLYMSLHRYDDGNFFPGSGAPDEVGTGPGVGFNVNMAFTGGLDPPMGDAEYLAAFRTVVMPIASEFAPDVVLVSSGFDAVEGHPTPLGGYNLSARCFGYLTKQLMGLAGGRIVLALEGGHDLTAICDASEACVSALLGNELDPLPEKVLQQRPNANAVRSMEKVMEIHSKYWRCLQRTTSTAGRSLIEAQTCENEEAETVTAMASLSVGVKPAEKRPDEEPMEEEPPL
Chain of Histone deacetylase 2 (Q92769 whole entry): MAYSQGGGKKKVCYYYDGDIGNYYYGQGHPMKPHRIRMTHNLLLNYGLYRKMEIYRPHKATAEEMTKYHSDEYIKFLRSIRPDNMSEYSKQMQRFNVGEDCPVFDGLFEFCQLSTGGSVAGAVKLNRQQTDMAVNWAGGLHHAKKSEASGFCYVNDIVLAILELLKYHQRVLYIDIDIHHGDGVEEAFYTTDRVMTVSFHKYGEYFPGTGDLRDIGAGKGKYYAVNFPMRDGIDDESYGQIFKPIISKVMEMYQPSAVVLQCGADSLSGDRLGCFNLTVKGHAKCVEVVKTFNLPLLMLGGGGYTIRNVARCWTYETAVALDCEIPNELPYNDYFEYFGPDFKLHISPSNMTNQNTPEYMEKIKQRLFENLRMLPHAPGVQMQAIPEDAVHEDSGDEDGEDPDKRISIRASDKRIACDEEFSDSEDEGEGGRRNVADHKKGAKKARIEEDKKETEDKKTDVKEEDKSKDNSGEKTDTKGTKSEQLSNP

As for `O=C(/C=C/c1ccc(CONC(=O)c2ccc3ccccc3n2)cc1)NO`, the result in assay [1], in [2], in assay [6] and in [9] was inactive. Further, the result in assay [3], in assay [4] and in [5] was Active. Further, in assay [7], the Activity came to 38.9%. Further, the “fold change (FC)” value turned out to be 3 in assay [8] and 4.7 in assay [10]. Further, the “Ratio IC50” value in assay [11] worked out at 5.69. Besides, the values for the Ki in [12], in assay [13] and in assay [14] were 100 nM, 9540 nM and 70 nM, respectively. For the same compound, the values for the IC50 in assay [15], in [16] and in [17] were 1540 nM, 800 nM and 270 nM, respectively.

As for `COc1ccc(NC(=O)NOCc2ccc(/C=C/C(=O)NO)cc2)cc1`, the result in assay [1], in assay [2], in assay [6] and in [9] was inactive. Also, the outcome in assay [3], in assay [4] and in assay [5] was Active. The Activity in assay [7] is recorded as 52.2%. The results for the “fold change (FC)” value in [8] and in assay [10] were 3 and 6, respectively. Moreover, the “Ratio IC50” value in assay [11] worked out at 2.95. The inhibition constant (Ki) in assay [12] worked out at 120 nM; in [13], 25200 nM; in assay [14], 150 nM. Further, the results for the IC50 in [15], in [16] and in assay [17] were 570 nM, 1700 nM and 490 nM, respectively.
